According to patent US11872291B2, “Fibroblast activation protein (FAP)-targeted imaging and therapy” (priority 2016, dated 2024):

How the values were obtained:
[1] = system: FaDu, HT29, MDA-MB231 and KB cancer cells; experiment: Confocal microscopy, uptake of JFL-L1-FM by cancer cells; type: cell-based; conditions: 100 nM, 1 h incubation at 37° C.
Experimental: Confocal Microscopy. FaDu, HT29, MDA-MB231 and KB cancer cells (30,000) were plated on 4 well confocal plate. The cells were incubated with […] JFL-L1-FM and incubated for 1 h. The unbound fluorescence was removed by washing the cells three times with the medium. The cell bound fluorescence was observed by using Olympus confocal microscopy.
In Vitro Binding Affinity and Confocal Imaging. The cancer cells FaDU, HT29, MDA-MB231 and KB were investigated for the expression of FAP. For this purpose, the cancer cells were seeded on a confocal well plate and incubated with 100 nM of the FAP targeted FM conjugate (JFL-L1-FM) After 1 h incubation at 37° C. the cells were washed to remove any excess of the […] under confocal microscopy to investigate any uptake of the dye, as shown in FIG. 11. […] This implied absence of FAP on these cancer cells.

[2] = system: MDA-MB-231 subcutaneous tumor; experiment: In vivo FAP targeted CAR T-cell therapy; design: species or system mice
Experimental: In vivo FAP targeted CAR T-cell therapy: MDA-MB-231 subcutaneous tumor was developed in female NSG mice by injecting 5 million cancer cells. Once the tumor volume reached ˜100 mms the mice were randomized into three different groups and treatment was initiated. Mice in all the groups were administered with 15 million CAR T-cells which has an scFv domain that binds specifically and tightly with fluorescein. 2 h after administration of the CAR T-cells mice in all the groups were given the first dose of the respective test agents. […] During therapy, mice in different groups were administered with the respective test agents intravenously on every other day. As a measure of gross toxicity mice were also weighed at every dosing.

[3] = system: FaDu, HT29, MDA-MB231 or KB tumor bearing mice; experiment: In vivo fluorescence imaging and biodistribution in tumor xenografts; conditions: i.v., 2 h post injection; harvested organs
Experimental: In Vivo Fluorescence Imaging and Biodistribution. For the development of subcutaneous tumor xenografts, MDA-MB231, OVCAR-3 and HEC-1B 5×10^6 cells in 0.2 ml sterile PBS were injected subcutaneously in the right hind flank of the female nu/nu mice. Tumor imaging was initiated once the tumor volume reached between 200 mm^3 and 300 mm^3. Each tumor-bearing mouse was intravenously injected (via tail vein) with 10 nanomoles of fluorescence dye conjugate either in the presence or absence of a 100-fold excess of the unlabeled conjugate. Animals were euthanized two hours post injection using CO2 and the images were acquired using Caliper IVIS Luminal II. After performing the whole body image, the organs of interest were harvested and imaged to inspect the accumulation of the fluorescence in these organs. The image acquisition parameters were as follows: i) lamp level-high, ii) excitation-745 nm, iii) emission-ICG, iv) binning (M) 4M, (v) f-stop-4, (vi) FOV-12.5, (vii) acquisition time, 5 s.
In Vivo Fluorescence Imaging. To investigate the ability of JFL-L1-S0456 to accumulate in vivo mice were implanted with FaDu (n=5), HT29 (n=5), MDA-MB231(n=5) or KB (n=5) cells. These tumor bearing mice were intravenously injected with the NIR dye conjugate alone or co-injected with excess of the FAP targeting ligand JFL. […]

[4] = 10 nmoles i.v. every other day with 15 million anti-fluorescein CAR T-cells

Compound	uptake of dye conjugate observed under confocal microscopy [1]	tumor growth rate after 1 week of treatment [2, 4]	tumor volume at the beginning of the study [2, 4]	tumor growth rate, competition group ([2]; 10 nmoles plus 100-fold excess of JFL, with CAR T-cells)	weight loss (gross toxicity) ([2]; all arms of the study)	uptake of the dye conjugate in the liver and kidney [3]
C[C@@H](NC(=O)c1ccnc(CNC(=O)CCC(=O)NC(CSC2CC(=O)N(c3ccc(-c4c5ccc(=O)cc-5oc5cc(O)ccc45)c(C(=O)O)c3)C2=O)C(=O)O)c1)C(=O)N1CC(F)(F)C[C@H]1C#N (stereo partly drawn) [JFL-L1-FM]	no uptake of dye conjugate was observed	slight separation in the tumor growth rate was observed	did not display any reduction in tumor volume	did not show any difference in the tumor growth rate	No weight loss was observed	
C[C@@H](NC(=O)c1ccnc(CNC(=O)CCC(=O)N[C@@H](CSC2CC(=O)N(CCNC(=O)CCc3ccc(OC4=C(/C=C/C5=[N+](CCCCS(=O)(=O)O)c6ccc(S(=O)(=O)[O-])cc6C5(C)C)CCC/C4=C\C=C4\N(CCCCS(=O)(=O)O)c5ccc(S(=O)(=O)O)cc5C4(C)C)cc3)C2=O)C(=O)O)c1)C(=O)N1CC(F)(F)C[C@H]1C#N (stereo partly drawn) [JFL-L1-S0456]						minimal or no uptake
